Series [1] has as its target T1, Matrix metalloproteinase 13 (MMP-13) (Homo sapiens, UniProt P45452).
T1 construct: purchased Chemicon CC068
In words: Enzyme inhibition experiment, MMP-13. Format: biochemical. Particulars: 444221 substrate, 37° C., 4 hours. The method, then: Matrix metalloproteinase 13 (MMP-13) (manufactured by Chemicon, product number: CC068)
(§1) The enzyme reaction was carried out using the enzymes and substrates. Specifically, if necessary, the enzyme was activated in advance with APMA (final concentration 1 mmol/L, p-aminophenylmercuric acetate, manufactured by Sigma-Aldrich Co., A9563) according to information from the manufacturer. Then, in a 96-well plate for fluorescence measurement, 90 μL of an enzyme solution prepared with Assay Buffer A (50 mmol/L Tris-HCl buffer (pH 7.5) containing 200 mmol/L sodium chloride, 5 mmol/L calcium chloride, 10 μmol/L zinc sulfate, and 2 mg/mL bovine serum albumin) was mixed with 90 μL of the substrate adjusted to be 20 μmol/L with Assay Buffer B (50 mmol/L Tris-HCl buffer (pH 7.5) containing 200 mmol/L sodium chloride, 5 mmol/L calcium chloride, 10 μmol/L zinc sulfate, and 0.05% PLURONIC F-68), and incubated for reaction at 25° C. or 37° C. for several hours. Moreover, the fluorescence intensities before and after the reaction were measured using a fluorometer to determine the enzyme activity.

For series [2], the target named is T2, Matrix metalloproteinase 1 (MMP-1) (Homo sapiens, UniProt P03956).
T2 construct: purchased Calbiochem 444208
T2 sequence (P03956 100-469): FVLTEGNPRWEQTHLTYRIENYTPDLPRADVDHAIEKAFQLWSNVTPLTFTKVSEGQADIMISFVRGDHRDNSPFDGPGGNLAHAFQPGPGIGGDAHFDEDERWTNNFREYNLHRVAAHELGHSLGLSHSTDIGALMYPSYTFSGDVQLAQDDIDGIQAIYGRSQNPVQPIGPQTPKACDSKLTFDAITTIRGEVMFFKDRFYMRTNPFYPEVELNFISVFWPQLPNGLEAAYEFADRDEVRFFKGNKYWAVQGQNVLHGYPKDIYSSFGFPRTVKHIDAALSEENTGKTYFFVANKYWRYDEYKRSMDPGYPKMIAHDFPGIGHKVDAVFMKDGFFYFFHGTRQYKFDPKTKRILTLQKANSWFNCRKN
In words: Enzyme inhibition experiment, MMP-1. Format: biochemical. The conditions noted are these: 444221 substrate, 37° C., 5 hours. The procedure: as §1, with “activity. An inhibition rate was obtained based on the enzyme activities in the presence and absence of the test substances, and the 50% inhibitory concentration (IC50) was calculated.” for “activity.”

Series [3] concerns the target T3, Matrix metalloproteinase 8 (MMP-8) (Homo sapiens, UniProt P22894).
T3 construct: purchased Calbiochem 444229
The series is described as follows: Enzyme inhibition experiment, MMP-8. Format: biochemical. The conditions noted are these: 3163 substrate, 37° C., 5 hours. The method, then:
as §1

The subject of series [4] is iPS cell-derived platelets (ADAM17-mediated GPIbα shedding). In words: Function-maintaining effect on iPS cell-derived platelets in culture system (flow cytometry CD41/CD42b, platelet count). The class given is cell-based, human. The conditions noted are these: Test Example 7, 8 days. The source says:
As human iPS cells (hiPS cells), an iPS cell line (TkDA3-4) established at the University of Tokyo by introducing Oct4, Klf4, Sox2, and c-Myc into human-derived skin cells was also used). […] The cells were subcultured for every 3 days, and those keeping an undifferentiated state were used.
Thereby, megakaryocytes/platelets were induced.

For series [5], the system named is human peripheral blood platelets adhering to VWF. The series is described as follows: Adhesion ability of platelets to VWF-coated flow chamber. The class given is cell-based. The conditions noted are these: Test Example 15; platelets incubated with 15 μM S-45457 and 100 μM CCCP, 37° C., 24 hours; wall shear rate 1500 S^−1. The procedure:
Then, the supernatant was removed. The precipitate thus obtained was suspended in a Tyrode HEPES Ca(−) buffer, added with 100 μM CCCP and simultaneously added with one of either DMSO or 15 μM S-45457 and followed by incubation at 37° C. for 24 hours. Note that, in this experiment, one obtained by adding CCCP and DMSO and the subsequent incubation was prepared as a negative control, while one obtained without the addition or the incubation treatments was prepared as a positive control.
Further, after the incubation (in the case of the positive control, without incubation), the suspension was added with TMRE (tetramethylrhodamine ethyl ester perchlorate) having been diluted to 1/2000 and incubated at room temperature for 15 minutes to label the platelets with fluorescence. […]
Next, each of fluorescence-labelled platelet samples was added to and mixed with a whole blood sample of collected human peripheral blood anticoagulated with argatroban (thrombin inhibitor) so that the number of platelets of the fluorescence-labelled platelet sample was 10% of the whole blood platelets. […] The fluorescence-labelled platelets which formed a thrombus were visualized using an inverted stage epifluorescence video microscope system (DM IRB, manufactured by Leica). […] Further, a percentage of surface area covered by platelets was calculated using Image-J software (NIH Image). […]

Structures are written as SMILES. Some results are limits rather than exact numbers.

For orientation: IC50 means the midpoint of a concentration-inhibition curve.

T3 sequence (P22894 101-467): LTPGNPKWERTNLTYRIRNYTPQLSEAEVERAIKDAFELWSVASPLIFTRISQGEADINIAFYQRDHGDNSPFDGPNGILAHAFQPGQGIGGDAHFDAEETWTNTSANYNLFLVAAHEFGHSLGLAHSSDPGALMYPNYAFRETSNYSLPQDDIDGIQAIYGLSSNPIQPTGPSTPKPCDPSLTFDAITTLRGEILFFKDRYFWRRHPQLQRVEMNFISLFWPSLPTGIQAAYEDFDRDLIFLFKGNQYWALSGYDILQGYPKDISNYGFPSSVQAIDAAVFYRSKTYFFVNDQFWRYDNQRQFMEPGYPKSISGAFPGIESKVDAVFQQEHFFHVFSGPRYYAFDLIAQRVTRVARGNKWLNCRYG

With `CC#CCOc1ccc(S(=O)(=O)CC(c2ccc(CN(CC)CC)cc2)N(O)C=O)cc1` (stereo not drawn) [Compound I-1, N-[2-(4-But-2-ynyloxybenzenesulfonyl)-1-(4-diethylaminomethylphenyl)ethyl]-N-hydroxyformamide], the results for the IC50 in series [1], in series [2] and in series [3] were 550 nM, greater than 100000 nM and 900 nM, respectively.
Take `CC#CCOc1ccc(S(=O)(=O)CC(c2ccc(CNS(C)(=O)=O)cc2)N(O)C=O)cc1` (stereo not drawn) [Compound I-4, N-{4-[2-(4-But-2-ynyloxybenzenesulfonyl)-1-(formylhydroxyamino)ethyl]benzyl}methanesulfonamide]: the “toxicity to cells (total number of platelets)” value in series [4] (iPS cells and differentiated cells, 1.5 to 50 μM) is on record as “low toxicity”. The “concentration dependency of inhibition of GPIbα shedding” value in series [4] (iPS cells, S-45457 1.5 to 50 μM) is listed as “inhibit ADAM17-mediated GPIbα shedding in a manner dependent on the added concentration”. The “percentage of surface area covered by platelets” value in series [5] is “high percentage of surface area covered by the platelets in comparison with the result of the negative control”. The IC50 in series [1] is 700 nM; in series [2] it was greater than 100000 nM; in series [3] it was 950 nM.

Source of the values: patent publication US9034922B2, “Composition for maintaining function of platelets” (THE UNIVERSITY OF TOKYO, priority 2010, dated 2015).
